Test results: patent publication US20040170959A1, “Methods for identifying antiviral oligonucleotides” (priority 2002, published 2004)

Experiments:
Hep2 cells = details: uninfected cells treated 7 days
Hepatitis C virus (HCV) = details: prolonged therapy; cited from earlier work
[1] = human, in vivo; cited from earlier work

Molecule: NC(=O)c1ncn([C@@H]2O[C@H](CO)[C@@H](O)[C@H]2O)n1 [Ribavirin]
- toxicity in Hep2 cells (Hep2 cells): significantly toxic

Molecule: interferon alpha
- share of patients in whom therapy is effective (Hepatitis C virus (HCV)): about 40% of patients

Molecule: Nc1nc(O)c2ncn(COC(CO)CO)c2n1 [ganciclovir]
- neutropenia and thrombocytopenia, share of patients treated [1]: 40%

Molecule: O=c1[nH]c(=O)n([C@H]2C[C@H](O)[C@@H](CO)O2)cc1I [idoxuridine]
- allergic reactions, share of patients treated [1]: 35%
